biological target: T1, CFTR (Homo sapiens, UniProt P13569); assay: T84 assay (FLIPR membrane potential dye, forskolin/IBMX-stimulated CFTR channel activity); format: cell-based; details: average of at least 2 runs unless annotated n = 1
T1 construct: host or cells: T84 human colonic cells
Procedure: Human colonic T84 cells are acquired from the European Collection of Cell Cultures (ECACC) and are grown in standard culture conditions as described by the supplier. On the day before assay 25,000 T84 cells per well are plated into standard black walled, clear bottom 384-well assay plates in standard growth medium consisting of DMEM:F12 with 10% FBS and incubated overnight. On the day of the assay the plates are washed using a standard assay buffer (HBSS with 10 mM Hepes) and incubated for 15 minutes in serum free cell culture medium before the addition of a commercially available membrane potential sensitive fluorescent dye (FLIPR Red membrane potential dye, Molecular Devices Corporation). T84 cells are incubated with the FLIPR Red membrane potential dye for 45 minutes in the presence and absence of test compound before being transferred to a commercially available fluorescence imaging plate reader (FLIPR384, Molecular Devices Corporation). Fluorescence levels are monitored continuously every second for 150 seconds; after an initial 10 second baseline, CFTR channel activity is stimulated through the addition of 10 μM forskolin in the presence of 100 μM of the phosphodiesterase inhibitor iso-butyl-methylxanthine (IBMX). Addition of the forskolin leads to the activation of intracellular adenylyl cylase 1, elevating cAMP levels and results in the phosphorylation and opening of CFTR anion channels. CFTR channel opening causes chloride ion efflux and subsequent depolarization of the cells, which is measured by an increase in fluorescence. CFTR inhibitor compounds prevent cell depolarization and the associated increase in fluorescence.
Unless otherwise indicated, the IC50 values are reported as an average of at least 2 runs. Where only 1 run is used, it is indicated by the annotation “n=1.”

T1 sequence (P13569 whole entry): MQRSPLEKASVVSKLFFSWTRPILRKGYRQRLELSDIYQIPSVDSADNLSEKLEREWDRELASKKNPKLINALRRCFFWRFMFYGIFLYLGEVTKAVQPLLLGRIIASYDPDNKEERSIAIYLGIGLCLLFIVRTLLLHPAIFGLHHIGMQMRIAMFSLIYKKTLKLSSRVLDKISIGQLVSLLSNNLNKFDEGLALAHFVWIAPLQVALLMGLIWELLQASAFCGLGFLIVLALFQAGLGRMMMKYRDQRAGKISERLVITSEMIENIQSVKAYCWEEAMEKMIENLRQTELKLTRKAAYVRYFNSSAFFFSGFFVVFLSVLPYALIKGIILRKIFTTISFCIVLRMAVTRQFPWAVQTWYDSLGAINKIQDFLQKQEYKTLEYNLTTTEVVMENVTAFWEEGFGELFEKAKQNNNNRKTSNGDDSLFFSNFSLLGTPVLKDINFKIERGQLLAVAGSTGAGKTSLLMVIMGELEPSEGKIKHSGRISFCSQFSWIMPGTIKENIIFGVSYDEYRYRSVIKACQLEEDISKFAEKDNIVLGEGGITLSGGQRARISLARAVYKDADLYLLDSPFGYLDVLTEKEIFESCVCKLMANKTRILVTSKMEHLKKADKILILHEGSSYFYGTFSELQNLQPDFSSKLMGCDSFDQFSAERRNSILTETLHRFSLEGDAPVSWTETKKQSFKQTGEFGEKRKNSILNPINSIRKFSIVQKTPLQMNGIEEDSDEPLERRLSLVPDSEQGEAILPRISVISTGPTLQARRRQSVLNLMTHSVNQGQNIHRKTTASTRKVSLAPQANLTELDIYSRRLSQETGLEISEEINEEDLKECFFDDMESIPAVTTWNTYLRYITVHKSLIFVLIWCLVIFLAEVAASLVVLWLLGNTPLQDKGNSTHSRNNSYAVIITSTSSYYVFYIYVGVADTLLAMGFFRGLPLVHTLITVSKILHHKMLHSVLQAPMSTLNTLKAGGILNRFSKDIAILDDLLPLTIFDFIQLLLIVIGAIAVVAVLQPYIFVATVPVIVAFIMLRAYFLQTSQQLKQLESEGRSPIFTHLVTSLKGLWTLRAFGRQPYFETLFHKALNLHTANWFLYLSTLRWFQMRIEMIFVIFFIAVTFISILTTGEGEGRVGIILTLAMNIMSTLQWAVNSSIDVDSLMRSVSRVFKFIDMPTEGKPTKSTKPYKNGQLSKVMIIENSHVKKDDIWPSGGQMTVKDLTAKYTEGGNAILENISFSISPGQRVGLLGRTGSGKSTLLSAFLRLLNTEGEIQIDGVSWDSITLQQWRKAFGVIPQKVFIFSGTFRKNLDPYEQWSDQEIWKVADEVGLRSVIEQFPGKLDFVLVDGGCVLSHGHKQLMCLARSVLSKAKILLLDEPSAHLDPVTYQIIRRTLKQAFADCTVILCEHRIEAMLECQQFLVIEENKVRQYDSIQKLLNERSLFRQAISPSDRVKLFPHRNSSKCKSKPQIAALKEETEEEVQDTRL

Point of comparison: O=C(NS(=O)(=O)c1ccc(F)cc1F)c1cccc(-c2ccc(OCCc3ccc(Cl)cc3)nn2)c1 [Compound 21, 3-(6-(4-chlorophenethoxy)pyridazin-3-yl)-N-(2,4-difluorophenylsulfonyl)benzamide], IC50 18.7 µM. Against it:
- CCN(Cc1ccccc1)c1ccc(-c2cccc(NS(=O)(=O)c3cccc(Br)c3)c2)nn1 [Compound 9, N-(3-(6-(benzyl(ethyl)amino)pyridazin-3-yl)phenyl)-3-bromobenzenesulfonamide] — 370-fold lower, 0.05 µM
- O=S(=O)(Nc1cccc(-c2ccc(OCCc3ccc(Cl)cc3)nn2)c1)c1ccc(N2CCOCC2)nc1 [Compound 4, N-(3-(6-(4-chlorophenethoxy)pyridazin-3-yl)phenyl)-6-morpholinopyridine-3-sulfonamide] — 3.4-fold lower, 5.55 µM
- O=S(=O)(CC(F)(F)F)Nc1cccc(-c2ccc(OCCc3ccc(Cl)cc3)nn2)c1 [Compound 20, N-(3-(6-(4-chlorophenethoxy)pyridazin-3-yl)phenyl)-2,2,2-trifluoroethanesulfonamide] — within 1.5-fold, 14.8 µM
- Cc1ccc(S(=O)(=O)NC(=O)c2ccc(-c3ccc(OCCc4ccc(Cl)cc4)nn3)cc2)cc1 [Compound 23, 4-(6-(4-chlorophenethoxy)pyridazin-3-yl)-N-tosylbenzamide] — 6.2-fold lower, 3.03 µM
- CC(C)CS(=O)(=O)Nc1ccc(-c2ccc(OCCc3ccc(Cl)cc3)nn2)cc1 [Compound 24, N-(4-(6-(4-chlorophenethoxy)pyridazin-3-yl)phenyl)-2-methylpropane-1-sulfonamide] — within 1.5-fold, 15.4 µM
- CCN(Cc1ccccc1)c1ccc(-c2cccc(NS(=O)(=O)c3ccc(C)cc3)c2)nn1 [Compound 8, N-(3-(6-(benzyl(ethyl)amino)pyridazin-3-yl)phenyl)-4-methylbenzenesulfonamide] — 370-fold lower, 0.05 µM
- CCS(=O)(=O)NC(=O)c1cccc(-c2ccc(OCCc3ccc(Cl)cc3)nn2)c1 [Compound 13, 3-(6-(4-chlorophenethoxy)pyridazin-3-yl)-N-(ethylsulfonyl)benzamide] — the same, 18.7 µM
- O=S(=O)(Nc1cccc(-c2ccc(OCCc3ccc(Cl)cc3)nn2)c1)C(F)(F)F [Compound 2, N-(3-(6-(4-chlorophenethoxy)pyridazin-3-yl)phenyl)-1,1,1-trifluoromethanesulfonamide] — 3.2-fold lower, 5.79 µM
- CCN(Cc1ccccc1)c1ccc(-c2cccc(NS(C)(=O)=O)c2)nn1 [Compound 7, N-(3-(6-(benzyl(ethyl)amino)pyridazin-3-yl)phenyl)methanesulfonamide] — 8.4-fold lower, 2.23 µM
- N#Cc1ccc(S(=O)(=O)Nc2cccc(-c3ccc(OCCc4ccc(Cl)cc4)nn3)c2)cc1 [Compound 3, N-(3-(6-(4-chlorophenethoxy)pyridazin-3-yl)phenyl)-4-cyanobenzenesulfonamide] — within 1.5-fold, 17.2 µM
- CC(C)(C)c1ccc(S(=O)(=O)NC(=O)c2cccc(-c3ccc(OCCc4ccc(Cl)cc4)nn3)c2)cc1 [Compound 14, N-(4-tert-butylphenylsulfonyl)-3-(6-(4-chlorophenethoxy)pyridazin-3-yl)benzamide] — within 1.5-fold, 20.1 µM
- COc1ccc(S(=O)(=O)NC(=O)c2cccc(-c3ccc(OCCc4ccc(Cl)cc4)nn3)c2)cc1 [Compound 11, 3-(6-(4-chlorophenethoxy)pyridazin-3-yl)-N-(4-methoxyphenylsulfonyl)benzamide] — 1.6-fold lower, 11.4 µM
- CCN(Cc1ccccc1)c1ccc(-c2cccc(NS(=O)(=O)N(C)C)c2)nn1 [Compound 6, N-(3-(6-(benzyl(ethyl)amino)pyridazin-3-yl)phenyl)dimethylaminosulfonamide] — 13-fold lower, 1.4 µM
- O=C(NS(=O)(=O)c1ccc(F)cc1)c1cccc(-c2ccc(OCCc3ccc(Cl)cc3)nn2)c1 [Compound 12, 3-(6-(4-chlorophenethoxy)pyridazin-3-yl)-N-(4-fluorophenylsulfonyl)benzamide] — 1.6-fold lower, 11.7 µM
- CCN(Cc1ccccc1)c1ccc(-c2cccc(NS(=O)(=O)C(F)(F)F)c2)nn1 [Compound 10, N-(3-(6-(benzyl(ethyl)amino)pyridazin-3-yl)phenyl)-1,1,1-trifluoromethanesulfonamide] — 2.4-fold lower, 7.92 µM
- O=C(NS(=O)(=O)c1ccc(F)c(F)c1)c1cccc(-c2ccc(OCCc3ccc(Cl)cc3)nn2)c1 [Compound 19, 3-(6-(4-chlorophenethoxy)pyridazin-3-yl)-N-(3,4-difluorophenylsulfonyl)benzamide] — within 1.5-fold, 13.9 µM
- CC(C)(C)c1ccc(S(=O)(=O)Nc2cccc(-c3ccc(OCCc4ccc(Cl)cc4)nn3)c2)cc1 [Compound 18, 4-tert-butyl-N-(3-(6-(4-chlorophenethoxy)pyridazin-3-yl)phenyl)benzenesulfonamide] — 2.3-fold lower, 8.09 µM
- O=C(NS(=O)(=O)Cc1ccccc1)c1cccc(-c2ccc(OCCc3ccc(Cl)cc3)nn2)c1 [Compound 17, N-(benzylsulfonyl)-3-(6-(4-chlorophenethoxy)pyridazin-3-yl)benzamide] — 3.1-fold lower, 6.05 µM
- CS(=O)(=O)Nc1cccc(-c2ccc(OCCc3ccc(Cl)cc3)nn2)c1 [Compound 1, N-(3-(6-(4-chlorophenethoxy)pyridazin-3-yl)phenyl)methanesulfonamide] — 1.9-fold lower, 9.79 µM
- CC(=O)Nc1ccc(S(=O)(=O)Nc2cccc(-c3ccc(OCCc4ccc(Cl)cc4)nn3)c2)cc1 [Compound 5, N-(4-(N-(3-(6-(4-chlorophenethoxy)pyridazin-3-yl)phenyl)sulfamoyl)phenyl)acetamide] — within 1.5-fold, 27.7 µM
- O=C(NS(=O)(=O)c1ccc(F)c(F)c1)c1cccc(-c2ccc(OCCc3ccc(Cl)cc3)nn2)c1 [Compound 15, 3-(6-(4-chlorophenethoxy)pyridazin-3-yl)-N-(3,4-difluorophenylsulfonyl)benzamide] — within 1.5-fold, 27.7 µM
- Cc1ccc(S(=O)(=O)Nc2cccc(-c3ccc(NCc4ccccc4)nn3)c2)cc1 [Compound 16, N-(3-(6-(benzylamino)pyridazin-3-yl)phenyl)-4-methylbenzenesulfonamide] — 8.3-fold lower, 2.24 µM
- O=S(=O)(Nc1ccc(-c2ccc(OCCc3ccc(Cl)cc3)nn2)cc1)C(F)(F)F [Compound 22, N-(4-(6-(4-chlorophenethoxy)pyridazin-3-yl)phenyl)-1,1,1-trifluoromethanesulfonamide] — 6.6-fold lower, 2.84 µM
- CCN(Cc1ccccc1)c1ccc(-c2cccc(N3CCCS3(=O)=O)c2)nn1 [Compound 26, Benzyl-{6-[3-(1,1-dioxo-isothiazolidin-2-yl)-phenyl]-pyridazin-3-yl}-ethylamine] — 5-fold lower, 3.77 µM

test system: cholera toxin (CTX) induced net fluid secretion in small intestine loops; assay: not given; set-up: species or system mice (CD1 strain); details: mouse, in vivo

For O=S(=O)(Nc1cccc(-c2ccc(OCCc3ccc(Cl)cc3)nn2)c1)C(F)(F)F [Compound 2, N-(3-(6-(4-chlorophenethoxy)pyridazin-3-yl)phenyl)-1,1,1-trifluoromethanesulfonamide], the “closed loop % inhibition” value was 98.2%.
